How the values were obtained:
Hepatitis C virus [1] = experiment: Antiviral activity against HCV assessed as inhibition of viral replicon replication in human Huh5-2 cells; assay type: functional, organism-based, Hepacivirus hominis; conditions: Huh-5-2
[2] = Cytotoxicity against human Huh5-2 cells; assay type: cell-based, Huh-5-2
carboxypeptidase [3] = experiment: Stability in presence of carboxypeptidase assessed as parent ProTide compound remaining after 10 mins; assay type: ADME; conditions: read-out: Stability
carboxypeptidase [4] = experiment: Stability in presence of carboxypeptidase assessed as parent ProTide compound remaining; assay type: ADME
carboxypeptidase [5] = experiment: Stability in presence of carboxypeptidase assessed as parent ProTide compound remaining after 13 hrs; assay type: ADME; conditions: read-out: Stability
Hepatitis C virus [6] = experiment: Antiviral activity against HCV by viral replicon assay; assay type: functional, organism-based, Hepacivirus hominis
[7] = Inhibition of HCV RNA-dependent RNA polymerase; design: species or system Hepacivirus hominis

EC50 (Hepatitis C virus [6]) | IC50 [7] | SMILES | EC50 (Hepatitis C virus [1]) | CC50 [2] | remaining at 10 min (carboxypeptidase [3]) | half-life (carboxypeptidase [4]) | remaining at 13 h (carboxypeptidase [5])
 |  | C[C@H](NP(=O)(OC[C@H]1O[C@@H](n2cnc3c(N)ncnc32)[C@](C)(O)[C@@H]1O)Oc1cccc2ccccc12)C(=O)OC(C)(C)C (some centres undefined) | 4.18 µM | > 50 µM |  |  | 
 |  | CCOC(=O)[C@H](C)NP(=O)(OC[C@H]1O[C@@H](n2cnc3c(N)ncnc32)[C@](C)(O)[C@@H]1O)Oc1cccc2ccccc12 (some centres undefined) | 0.24 µM | > 50 µM |  |  | 
 |  | C[C@H](NP(=O)(OC[C@H]1O[C@@H](n2cnc3c(=O)[nH]c(N)nc32)[C@](C)(O)[C@@H]1O)Oc1cccc2ccccc12)C(=O)OCc1ccccc1 (some centres undefined) | 0.12 µM | > 50 µM | 7% | 0.05 h | 
 |  | CCOC(=O)[C@H](C)NP(=O)(OC[C@H]1O[C@@H](n2cnc3c(=O)[nH]c(N)nc32)[C@](C)(O)[C@@H]1O)Oc1cccc2ccccc12 (some centres undefined) | 0.28 µM | > 50 µM |  |  | 
 |  | C[C@H](NP(=O)(OC[C@H]1O[C@@H](n2cnc3c(=O)[nH]c(N)nc32)[C@](C)(O)[C@@H]1O)Oc1cccc2ccccc12)C(=O)OC(C)(C)C (some centres undefined) | 27 µM | > 50 µM |  | 33 h | 24%
 |  | COC(=O)[C@H](C)NP(=O)(OC[C@H]1O[C@@H](n2cnc3c(=O)[nH]c(N)nc32)[C@](C)(O)[C@@H]1O)Oc1cccc2ccccc12 (some centres undefined) | 0.23 µM | > 50 µM |  |  | 
 |  | C[C@H](NP(=O)(OC[C@H]1O[C@@H](n2cnc3c(N)ncnc32)[C@](C)(O)[C@@H]1O)Oc1cccc2ccccc12)C(=O)OCc1ccccc1 (some centres undefined) | 0.27 µM | > 50 µM |  |  | 
 |  | C[C@@]1(O)[C@H](O)[C@@H](CO)O[C@H]1n1cnc2c(N)ncnc21 | 0.25 µM | > 50 µM |  |  | 
3.5 µM | 0.13 µM | C[C@@]1(O)[C@H](O)[C@@H](CO)O[C@H]1n1cnc2c(=O)[nH]c(N)nc21 [2'-B-METHYL-GUANOSINE] | 10.1 µM | > 50 µM |  |  | 

Reference: ChEMBL document CHEMBL1153636, “The phosphoramidate ProTide approach greatly enhances the activity of beta-2'-C-methylguanosine against hepatitis C virus” (Bioorg Med Chem Lett, 2009)
